In patent US11771692B2, “N-hydroxyethyl didehydroazapodophyllotoxins as GBP1 inhibitors and methods of overcoming treatment resistance in cancer” (The Board of Trustees of the Leland Stanford Junior …, priority 2018, dated 2023):
Entries after “also recorded” stand apart in the source; their conditions may differ.

Columns and labels:
SSC-90 = experiment: MTT cytotoxicity assay, SSC-90; type: cell-based; settings: Head and Neck, SSC-90, MTT assay
Text: (§1) It was observed that SU093 was highly cytotoxic for all cell lines tested with IC50 values in the nanomolar range.

GBP1 = experiment: Confocal microscopy immunostaining of GBP1 and β-tubulin in OVCAR8 cells; type: cell-based; settings: OVCAR8, 1 nM SU093 for 6 h
[1] = system: GBP1-OV and GBP1-KD OVCAR8 cells; experiment: MTT cell viability in GBP1-WT, GBP1-OV and GBP1-KD OVCAR8 cells; type: cell-based
Text: FIG. 3, panels A-E. FIG. 3, panel A illustrates the effects of SU093 on survival of human normal HEK293 cell line and ovarian cancer cell lines OVCAR8 & SKOV3 cells via MTT assay. FIG. 3, panel B illustrates the effect of SU093 on GBP1 and PIM1 expression in OVCAR8 cells. […] FIG. 3, panel D illustrates quantification of overexpression and knockdown of GBP1 gene in stably transfected OVCAR8 cells. FIG. 3, panel E illustrates cytotoxicity of SU093 as evaluated in GBP1-OV, GBP1-WT and GBP1-KD OVCAR8 via MTT assay.
Furthermore, OVCAR8 cells with overexpressed (OV) and knockdown (KD) of GBP1 gene were created (FIG. 3, panel D) and cell viability experiments were performed on GBP1-WT (wild-type), GBP1-OV and GBP1-KD OVCAR8 cells at different doses of SU093.

ID-8 tumor xenograft = experiment: Ovarian ID-8 tumor xenograft in C57BL6 mice; type: in vivo
Text: An immunocompetent syngeneic mouse model was used to evaluate in vivo antitumor effect of SU093 and SU056 (also referred to herein as Compound (I)) for ovarian cancer. C57BL6 female mice (n=5/group) were subcutaneously injected in the right flank with 5×10^6 ID-8 cells mixed with matrigel. From the day following xenograft implantation, mice were monitored regularly for tumor growth and once the tumors reached approximately 100 mm^3, the mice were randomly divided into three groups and respective treatments were given.
Group I (vehicle control): 100 μl of 10% PEG300 (w/v) in saline;
Group II: mice treated with SU093 (20 mg/kg); and
Group III: mice treated with SU056 (20 mg/kg).
Doses were administered intraperitoneally (IP) for 7 days/week for 42 days and the mice were sacrificed on day 43. Tumor sizes were measured twice weekly using digital caliper and tumor volume was calculated by the formula: 0.5236 L1 (L2)^2, where L1 is long diameter, and L2 is short diameter.

MCF7 = experiment: MTT cytotoxicity assay, MCF7; type: cell-based; settings: Homo sapiens, Breast
Text: as §1

A549 = experiment: MTT cytotoxicity assay, A549; type: cell-based; settings: Homo sapiens, Lung
Text: as §1

[2] = ID-8, 20 mg/kg IP daily, 42 days, vs control

COc1ccc2c(c1)N(CCO)C1=C(C(=O)OC1)C2c1ccccc1 (centres unmarked) [SU093]
IC50 (SSC-90): 3.23 nM | GBP1 nuclear translocation and tubulin expression (GBP1): inhibits the nuclear translocation of GBP1 protein and reduces the tubulin expression; also recorded: blocking its nuclear translocation and reducing tubulin expression | cytotoxicity compared to GBP1-WT ([1]; GBP1-KD OVCAR8 cells): enhanced cytotoxicity | cytotoxicity compared to GBP1-WT ([1]; GBP1-OV OVCAR8 cells): reduced cytotoxicity | gross sign of toxicity (body weight and diet consumption) (ID-8 tumor xenograft; 20 mg/kg IP daily, 42 days): did not show any gross sign of toxicity | liver toxicity parameters (AST, ALT, Alkaline phosphatase) (ID-8 tumor xenograft; ELISA, end of 42 days, vs control): No significant difference | reduction in tumor volume (ID-8 tumor xenograft; [2]): 37.5% | tumor weight decreased (ID-8 tumor xenograft; [2]): 39.65% | tumor volume/mouse (ID-8 tumor xenograft; ID-8, 20 mg/kg IP daily, end of 6 weeks): 318.81±26.09 mm^3 | IC50 (MCF7): 6.23 nM | IC50 (A549): 2.48 nM
